According to US12662479B2 (Foghorn Therapeutics Inc., priority 2020, dated 2026):
Read-outs that look alike come from different tables or passages of the source.

Key:
[1] = molecular target: T1, HiBit-BRM fusion protein (Homo sapiens, UniProt P51531); assay: HiBiT-BRM cell-based degradation assay (Nano-Glo HiBiT Lytic Detection, 24 h); conditions: HeLa cells expressing HiBiT-BRM; for DC50: read-out: BRM HiBit Degradation IC50; for BRM HiBit Degradation Maximum measured: top dose 30 μM
T1 construct: expressed in transfected cells
Description: (§1) Procedure: A stable HeLa cell line expressing HiBiT-BRM was generated. On day 0, 5000 cells were seeded in 40 μL of media into each well of 384-well cell culture plates. On day 1, cells were treated with 120 nL DMSO or 120 nL of 3-fold serially DMSO-diluted compounds (10 points in duplicate with 30 μM as final top dose). Subsequently plates were incubated for 24 h in a standard tissue culture incubator and equilibrated at room temperature for 15 minutes. Nano-Glo HiBiT Lytic Detection System (Promega N3050) reagent was freshly prepared and 20 ul was added to each well. Upon addition of this LgBit-containing reagent, the HiBiT and LgBiT proteins associate to form the luminescent NanoBiT luciferase. The plates were shaken for 10 minutes at room temperature and the bioluminescence read using an EnVision plate reader (PerkinElmer).
(§2) The degradation % was calculated using the following formula: % degradation=100%−100%×(LumSample−LumLC)/(LumHC−LumLC). DMSO treated cells are employed as High Control (HC) and 2 μM of a known BRM/BRG1 degrader standard treated cells are employed as Low Control (LC).

[2] = molecular target: T2, HiBit-BRG1 fusion protein (Homo sapiens, UniProt P51532); assay: HiBiT-BRG1 cell-based degradation assay (Nano-Glo HiBiT Lytic Detection, 24 h); conditions: for Dmax: HeLa, top dose 30 μM, read-out: BRG1 HiBit Degradation Maximum measured
T2 construct: expressed in transfected cells
Description: as §1, with “On day 1, cells were treated with 120 nL DMSO or 120 nL of 3-fold serially DMSO-diluted compounds (10 points in duplicate with 30 μM as final top dose). Subsequently plates were incubated for 24 h in a standard tissue culture incubator and equilibrated at room temperature for 15 minutes.” left out
For measurement of BRG1 degradation, a stable HeLa cell line expressing HiBit-BRG1 and LgBit was generated. The same protocol as above was then followed.
as §2

[3] = HeLa cells expressing HiBit-BRG1 and LgBit, read-out: BRG1 HiBit Degradation IC50
[4] = HeLa cells expressing HiBit-BRG1 and LgBit

T2 sequence (P51532 whole entry, the tested form may be a part): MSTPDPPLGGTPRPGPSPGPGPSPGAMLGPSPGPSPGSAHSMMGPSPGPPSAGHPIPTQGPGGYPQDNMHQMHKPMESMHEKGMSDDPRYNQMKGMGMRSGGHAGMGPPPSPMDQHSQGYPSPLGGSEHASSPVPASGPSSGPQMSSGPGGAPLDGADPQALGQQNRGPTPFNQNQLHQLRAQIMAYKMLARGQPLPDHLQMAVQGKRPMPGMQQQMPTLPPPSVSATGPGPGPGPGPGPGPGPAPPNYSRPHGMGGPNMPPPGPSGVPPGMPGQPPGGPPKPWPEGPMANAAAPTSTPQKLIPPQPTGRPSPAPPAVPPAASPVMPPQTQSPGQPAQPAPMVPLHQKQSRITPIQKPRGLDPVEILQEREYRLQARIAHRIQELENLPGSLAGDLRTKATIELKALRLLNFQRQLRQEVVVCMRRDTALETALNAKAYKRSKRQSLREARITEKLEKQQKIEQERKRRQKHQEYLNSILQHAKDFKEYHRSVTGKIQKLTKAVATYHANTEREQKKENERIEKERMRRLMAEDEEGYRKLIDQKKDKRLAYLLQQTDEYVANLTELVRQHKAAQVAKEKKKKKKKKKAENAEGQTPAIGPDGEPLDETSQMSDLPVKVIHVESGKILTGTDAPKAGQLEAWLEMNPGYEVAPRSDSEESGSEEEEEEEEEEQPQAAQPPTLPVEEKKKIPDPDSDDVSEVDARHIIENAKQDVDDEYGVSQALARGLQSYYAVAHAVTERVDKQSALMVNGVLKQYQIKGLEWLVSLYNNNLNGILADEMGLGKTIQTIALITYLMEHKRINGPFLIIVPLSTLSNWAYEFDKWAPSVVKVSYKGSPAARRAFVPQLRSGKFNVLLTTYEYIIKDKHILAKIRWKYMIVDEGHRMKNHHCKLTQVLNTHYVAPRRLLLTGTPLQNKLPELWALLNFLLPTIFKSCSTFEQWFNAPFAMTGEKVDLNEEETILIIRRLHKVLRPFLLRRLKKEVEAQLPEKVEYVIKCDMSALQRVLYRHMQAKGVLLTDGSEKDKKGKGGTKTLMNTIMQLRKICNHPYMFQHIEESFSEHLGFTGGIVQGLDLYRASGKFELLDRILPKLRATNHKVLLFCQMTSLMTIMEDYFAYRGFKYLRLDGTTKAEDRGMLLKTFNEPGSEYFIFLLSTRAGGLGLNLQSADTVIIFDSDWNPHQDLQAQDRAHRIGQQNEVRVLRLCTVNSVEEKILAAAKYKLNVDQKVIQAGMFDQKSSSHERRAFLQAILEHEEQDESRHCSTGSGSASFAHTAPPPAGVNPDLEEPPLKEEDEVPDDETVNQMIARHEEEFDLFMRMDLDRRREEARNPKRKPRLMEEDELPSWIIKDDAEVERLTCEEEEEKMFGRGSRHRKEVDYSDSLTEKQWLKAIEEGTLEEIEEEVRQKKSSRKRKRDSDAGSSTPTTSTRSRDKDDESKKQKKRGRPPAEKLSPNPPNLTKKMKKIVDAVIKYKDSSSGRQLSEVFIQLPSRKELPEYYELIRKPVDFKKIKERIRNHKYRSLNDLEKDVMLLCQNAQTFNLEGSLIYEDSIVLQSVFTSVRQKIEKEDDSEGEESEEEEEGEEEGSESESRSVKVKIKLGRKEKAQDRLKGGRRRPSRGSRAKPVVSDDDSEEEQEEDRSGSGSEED
T1 sequence (P51531 whole entry, the tested form may be a part): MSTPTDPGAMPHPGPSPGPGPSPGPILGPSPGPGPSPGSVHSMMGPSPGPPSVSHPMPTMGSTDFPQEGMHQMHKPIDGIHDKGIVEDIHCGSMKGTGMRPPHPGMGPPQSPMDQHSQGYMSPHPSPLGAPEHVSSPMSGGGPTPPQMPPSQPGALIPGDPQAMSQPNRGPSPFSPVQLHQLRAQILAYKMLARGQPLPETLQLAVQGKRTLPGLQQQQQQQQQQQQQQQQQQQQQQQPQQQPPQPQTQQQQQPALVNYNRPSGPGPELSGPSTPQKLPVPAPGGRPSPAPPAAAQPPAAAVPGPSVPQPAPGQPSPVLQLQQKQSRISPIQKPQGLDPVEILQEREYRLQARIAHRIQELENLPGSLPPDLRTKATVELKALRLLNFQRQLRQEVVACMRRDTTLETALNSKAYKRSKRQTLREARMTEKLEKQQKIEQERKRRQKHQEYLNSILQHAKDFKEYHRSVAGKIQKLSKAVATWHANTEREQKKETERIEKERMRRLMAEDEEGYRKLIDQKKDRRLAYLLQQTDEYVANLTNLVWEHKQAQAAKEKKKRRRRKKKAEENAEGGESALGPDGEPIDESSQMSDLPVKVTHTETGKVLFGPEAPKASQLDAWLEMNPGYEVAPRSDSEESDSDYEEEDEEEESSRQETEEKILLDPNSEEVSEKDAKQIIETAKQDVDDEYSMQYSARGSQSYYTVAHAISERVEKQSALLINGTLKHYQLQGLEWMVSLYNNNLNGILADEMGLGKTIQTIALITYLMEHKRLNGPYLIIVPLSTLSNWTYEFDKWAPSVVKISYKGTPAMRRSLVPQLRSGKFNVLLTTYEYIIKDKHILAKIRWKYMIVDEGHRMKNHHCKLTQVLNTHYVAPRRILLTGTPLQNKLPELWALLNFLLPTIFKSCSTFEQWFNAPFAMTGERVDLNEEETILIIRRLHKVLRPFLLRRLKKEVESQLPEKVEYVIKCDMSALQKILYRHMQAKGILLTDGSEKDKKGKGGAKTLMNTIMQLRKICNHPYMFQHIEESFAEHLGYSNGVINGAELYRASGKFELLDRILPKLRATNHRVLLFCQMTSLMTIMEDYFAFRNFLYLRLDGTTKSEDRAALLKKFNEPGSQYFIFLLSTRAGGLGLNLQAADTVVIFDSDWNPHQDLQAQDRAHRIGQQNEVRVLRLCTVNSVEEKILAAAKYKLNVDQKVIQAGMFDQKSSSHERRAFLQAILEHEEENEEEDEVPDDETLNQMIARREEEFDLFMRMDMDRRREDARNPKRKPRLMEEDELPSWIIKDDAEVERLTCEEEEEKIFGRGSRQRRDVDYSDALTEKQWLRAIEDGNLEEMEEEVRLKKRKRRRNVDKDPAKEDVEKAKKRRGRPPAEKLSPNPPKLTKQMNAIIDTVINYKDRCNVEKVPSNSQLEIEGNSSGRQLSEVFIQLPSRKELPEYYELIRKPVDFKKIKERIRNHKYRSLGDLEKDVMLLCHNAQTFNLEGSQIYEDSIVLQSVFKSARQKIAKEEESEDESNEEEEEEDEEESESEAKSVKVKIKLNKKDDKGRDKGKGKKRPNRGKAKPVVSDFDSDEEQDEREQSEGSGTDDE

With `CS(=O)(=O)n1ccc(C(=O)N[C@@H](COCc2ccc(C(=O)NCCCCCNc3ccc4c(c3)C(=O)N(C3CCC(=O)NC3=O)C4=O)cc2)C(=O)Nc2nc(-c3ccccc3)cs2)c1` (stereo partly drawn) [Compound 243, N-(5-[[2-(2,6-dioxopiperidin-3-yl)-1,3-dioxoisoindol-5-yl]amino]pentyl)-4-[[(2S)-2-[(1-methanesulfonylpyrrol-3-yl)formamido]-2-[(4-phenyl-1,3-thiazol-2-yl)carbamoyl]ethoxy]methyl]benzamide] the DC50 [1] was 100 to 1000 nM, the “BRM HiBit Degradation Maximum measured” value [1] was “B (‘B’ = Maximum degradation ≥50% and ≤75%)” and the DC50 [2, 3] was 100 to 1000 nM. For the same compound, the Dmax [2, 4] was greater than 75%.
With `CN(CCNC(=O)C1(c2cc(-c3cccc(-c4csc(NC(=O)CNC(=O)c5ccn(S(C)(=O)=O)c5)n4)c3)ccn2)CC1)CCNc1cccc2c1C(=O)N(C1CCC(=O)NC1=O)C2=O` (stereo not shown) [Compound 97, N-[2-[[4-[3-[2-[1-[2-[2-[[2-(2,6-dioxo-3-piperidyl)-1,3-dioxoisoindolin-4-yl]amino]ethyl-methyl-amino]ethylcarbamoyl]cyclopropyl]-4-pyridyl]phenyl]thiazol-2-yl]amino]-2-oxo-ethyl]-1-methylsulfonyl-pyrrole-3-carboxamide] the DC50 [1] was greater than 10000 nM, the “BRM HiBit Degradation Maximum measured” value [1] was “C (‘C’ = Maximum degradation <50%)” and the DC50 [2, 3] was greater than 10000 nM. For the same compound, the Dmax [2, 4] was less than 50%.
With `CS(=O)(=O)n1ccc(C(=O)N[C@@H](COCc2ccc(C(=O)NCCOc3cccc(OCCNc4ccc5c(c4)C(=O)N(C4CCC(=O)NC4=O)C5=O)c3)cc2)C(=O)Nc2nc(-c3ccccc3)cs2)c1` (stereo partly drawn) [Compound 207, N-[2-[3-(2-[[2-(2,6-dioxopiperidin-3-yl)-1,3-dioxoisoindol-5-yl]amino]ethoxy)phenoxy]ethyl]-4-[[(2S)-2-[(1-methanesulfonylpyrrol-3-yl)formamido]-2-[(4-phenyl-1,3-thiazol-2-yl)carbamoyl]ethoxy]methyl]benzamide] the DC50 [1] was 100 to 1000 nM, the “BRM HiBit Degradation Maximum measured” value [1] was “B (‘B’ = Maximum degradation ≥50% and ≤75%)” and the DC50 [2, 3] was 100 to 1000 nM. The Dmax [2, 4] was 50 to 75%.
For `CS(=O)(=O)n1ccc(C(=O)N[C@@H](COCc2ccc(CNC(=O)CCCCCCCCCCNc3cccc4c3C(=O)N(C3CCC(=O)NC3=O)C4=O)cc2)C(=O)Nc2nc(-c3ccccc3)cs2)c1` (stereo partly drawn) [Compound 214, 11-[[2-(2,6-dioxopiperidin-3-yl)-1,3-dioxoisoindol-4-yl]amino]-N-[(4-[[(2S)-2-[(1-methanesulfonylpyrrol-3-yl)formamido]-2-[(4-phenyl-1,3-thiazol-2-yl)carbamoyl]ethoxy]methyl]phenyl)methyl]undecanamide], the DC50 [1] was 100 to 1000 nM, the “BRM HiBit Degradation Maximum measured” value [1] was “B (‘B’ = Maximum degradation ≥50% and ≤75%)” and the DC50 [2, 3] was 100 to 1000 nM.
With `Cc1ncsc1-c1ccc(CNC(=O)[C@@H]2C[C@@H](O)CN2C(=O)[C@@H](NC(=O)CCCCCCCNC(=O)CCCOC[C@H](NC(=O)c2ccn(S(C)(=O)=O)c2)C(=O)Nc2nc(-c3ccccc3)cs2)C(C)(C)C)cc1` [Compound 227, (2S,4R)-4-hydroxy-1-[(2S)-2-(8-[4-[(2S)-2-[(1-methanesulfonylpyrrol-3-yl)formamido]-2-[(4-phenyl-1,3-thiazol-2-yl)carbamoyl]ethoxy]butanamido]octanamido)-3,3-dimethylbutanoyl]-N-[[4-(4-methyl-1,3-thiazol-5-yl)phenyl]methyl]pyrrolidine-2-carboxamide] the DC50 [1] was greater than 10000 nM, the “BRM HiBit Degradation Maximum measured” value [1] was “C (‘C’ = Maximum degradation <50%)” and the DC50 [2, 3] was greater than 10000 nM. It also gave a Dmax [2, 4] of less than 50%.
`CS(=O)(=O)n1ccc(C(=O)N[C@@H](COCc2ccc(C(=O)N3CC(COc4ccc5c(c4)C(=O)N(C4CCC(=O)NC4=O)C5=O)C3)cc2)C(=O)Nc2nc(-c3ccccc3)cs2)c1` (stereo partly drawn) [Compound 198, (2S)-3-([4-[3-([[2-(2,6-dioxopiperidin-3-yl)-1,3-dioxoisoindol-5-yl]oxy]methyl)azetidine-1-carbonyl]phenyl]methoxy)-2-[(1-methanesulfonylpyrrol-3-yl)formamido]-N-(4-phenyl-1,3-thiazol-2-yl)propanamide] was tested, and the DC50 [1] was greater than 10000 nM, the “BRM HiBit Degradation Maximum measured” value [1] was “C (‘C’ = Maximum degradation <50%)” and the DC50 ([2]; read-out: BRG1 HiBit Degradation IC50, HeLa cells expressing HiBit-BRG1 and LgBit) was greater than 10000 nM.
For `CS(=O)(=O)n1ccc(C(=O)N[C@@H](CCOCCCC(=O)N2CCN(CCCCCOc3ccc4c(c3)C(=O)N(C3CCC(=O)NC3=O)C4=O)CC2)C(=O)Nc2nc(-c3ccccc3)cs2)c1` (stereo partly drawn) [Compound 254, (2S)-4-[4-[4-(5-[[2-(2,6-dioxopiperidin-3-yl)-1,3-dioxoisoindol-5-yl]oxy]pentyl)piperazin-1-yl]-4-oxobutoxy]-2-[(1-methanesulfonylpyrrol-3-yl)formamido]-N-(4-phenyl-1,3-thiazol-2-yl)butanamide], the DC50 [1] was greater than 10000 nM, the “BRM HiBit Degradation Maximum measured” value [1] was “C (‘C’ = Maximum degradation <50%)” and the DC50 [2, 3] was greater than 10000 nM. For the same compound, the Dmax [2, 4] was less than 50%.
`CS(=O)(=O)n1ccc(C(=O)N[C@@H](COCc2ccc(C(=O)N3CC(Oc4ccc5c(c4)C(=O)N(C4CCC(=O)NC4=O)C5=O)C3)cc2)C(=O)Nc2nc(-c3ccccc3)cs2)c1` (stereo partly drawn) [Compound 194, N-((2S)-3-((4-(3-((2-(2,6-dioxopiperidin-3-yl)-1,3-dioxoisoindolin-5-yl)oxy)azetidine-1-carbonyl)benzyl)oxy)-1-oxo-1-((4-phenylthiazol-2-yl)amino)propan-2-yl)-1-(methylsulfonyl)-1H-pyrrole-3-carboxamide] was tested, and the DC50 [1] was greater than 10000 nM, the “BRM HiBit Degradation Maximum measured” value [1] was “C (‘C’ = Maximum degradation <50%)” and the DC50 [2, 3] was greater than 10000 nM. It also gave a Dmax [2, 4] of less than 50%.
`CS(=O)(=O)n1ccc(C(=O)NCC(=O)Nc2nc(-c3cccc(-c4ccn(CC(=O)NCCCCCCCCNC(=O)COc5cccc6c5C(=O)N(C5CCC(=O)NC5=O)C6=O)n4)c3)cs2)c1` (stereo not shown) [Compound 5, N-[2-[[4-[3-[1-[2-[8-[[2-[2-(2,6-dioxo-3-piperidyl)-1,3-dioxoisoindolin-4-yl]oxyacetyl]amino]octylamino]-2-oxo-ethyl]pyrazol-3-yl]phenyl]thiazol-2-yl]amino]-2-oxo-ethyl]-1-methylsulfonyl-pyrrole-3-carboxamide] was tested, and the DC50 [1] was greater than 10000 nM, the “BRM HiBit Degradation Maximum measured” value [1] was “C (‘C’ = Maximum degradation <50%)” and the DC50 [2, 3] was greater than 10000 nM. The Dmax [2, 4] was less than 50%.
In the case of `CC(C)(C(=O)N1CCC(C2CCN(C(=O)COc3cccc4c3C(=O)N(C3CCC(=O)NC3=O)C4=O)CC2)CC1)n1ccc(-c2cccc(-c3csc(NC(=O)CNC(=O)c4ccn(S(C)(=O)=O)c4)n3)c2)n1` (stereo not shown) [Compound 10, N-[2-[[4-[3-[1-[2-[4-[1-[2-[2-(2,6-dioxo-3-piperidyl)-1,3-dioxo-isoindolin-4-yl]oxyacetyl]-4-piperidyl]-1-piperidyl]-1,1-dimethyl-2-oxo-ethyl]pyrazol-3-yl]phenyl]thiazol-2-yl]amino]-2-oxo-ethyl]-1-methylsulfonylpyrrole-3-carboxamide], the DC50 [1] is reported as greater than 10000 nM, the “BRM HiBit Degradation Maximum measured” value [1] is reported as “C (‘C’ = Maximum degradation <50%)” and the DC50 [2, 3] is reported as greater than 10000 nM. The Dmax [2, 4] was less than 50%.
For `CS(=O)(=O)n1ccc(C(=O)NCC(=O)Nc2nc(-c3cccc(-c4ccnc(C5(C(=O)N6CCN(CC7CCN(c8ccc9c(c8)C(=O)N(C8CCC(=O)NC8=O)C9=O)CC7)CC6)CC5)c4)c3)cs2)c1` (stereo not shown) [Compound 134, N-[4-[3-(2-[1-[4-([1-[2-(2,6-dioxopiperidin-3-yl)-1,3-dioxoisoindol-5-yl]piperidin-4-yl]methyl)piperazine-1-carbonyl]cyclopropyl]pyridin-4-yl)phenyl]-1,3-thiazol-2-yl]-2-[(1-methanesulfonylpyrrol-3-yl)formamido]acetamide], the DC50 [1] was 100 to 1000 nM, the “BRM HiBit Degradation Maximum measured” value [1] was “A (‘A’ = Maximum degradation >75%)” and the DC50 [2, 3] was less than 100 nM. It also gave a Dmax [2, 4] greater than 75%.
`CS(=O)(=O)n1ccc(C(=O)N[C@@H](COCc2ccc(C(=O)N3CC4(CCN(CCCNc5ccc6c(c5)C(=O)N(C5CCC(=O)NC5=O)C6=O)CC4)C3)cc2)C(=O)Nc2nc(-c3ccccc3)cs2)c1` (stereo partly drawn) [Compound 234, (2S)-3-([4-[7-(3-[[2-(2,6-dioxopiperidin-3-yl)-1,3-dioxoisoindol-5-yl]amino]propyl)-2,7-diazaspiro[3.5]nonane-2-carbonyl]phenyl]methoxy)-2-[(1-methanesulfonylpyrrol-3-yl)formamido]-N-(4-phenyl-1,3-thiazol-2-yl)propanamide] was tested, and the DC50 [1] was 100 to 1000 nM, the “BRM HiBit Degradation Maximum measured” value [1] was “B (‘B’ = Maximum degradation ≥50% and ≤75%)” and the DC50 [2, 3] was 100 to 1000 nM. It also gave a Dmax [2, 4] of 50 to 75%.
